Results taken from paper PMC6445163, “Design, synthesis, and evaluation of novel 2-phenylpropionic acid derivatives as dual COX inhibitory-antibacterial agents” (Journal of Enzyme Inhibition and Medicinal Chemistry, 2017).
In brackets after ≈: the same amount, converted by molar mass.

What was measured:
[1] = tested on: Enterococcus faecalis (ATCC 29212); experiment: broth microdilution MIC (CLSI M07-A9), resazurin; assay type: cell-based; conditions: ATCC29212, 24 h
Protocol: (§1) Microbiological studies were performed according to following guides: CLSI reference […]-A9 broth microdilution method[49] for bacterial strains and EUCAST definitive (EDef 7.1) method[50] for Candida species. Synthesized compounds were tested for their in vitro growth inhibitory activity against Staphylococcus aureus (ATCC 25923), Enterococcus faecalis (ATCC 29212), Listeria monocytogenes (ATCC 1911), Klebsiella pneumoniae (NCTC 9633), Escherichia coli (ATCC 35218), E. coli (ATCC 25922) Candida albicans (ATCC 24433) Candida krusei (ATCC 6258) and Candida parapsilosis (ATCC 22019). Chloramphenicol and ketoconazole were used as control drugs. The cultures were obtained from the Mueller-Hinton broth (Difco) for the bacterial strains after overnight incubation at 37 °C. The yeasts were maintained in Roswell Park Memorial Institute (RPMI) after overnight incubation at 37 °C. […] Testing was carried out in Mueller-Hinton broth and RPMI at pH =7, and the two-fold serial dilutions technique was applied. The last well on the microplates containing only inoculated broth was kept as controls and the last well with no growth of microorganism was recorded to represent the minimum inhibitory concentration (MIC) expressed in μg/mL. For both the antibacterial and antifungal assays, the compounds were dissolved in DMSO. […] The completed plates were incubated for 24 h. At the end of the incubation, resazurin (20 μg/mL) was added into each well and plates were incubated for 2 h. MIC values were determined using a microplate reader at […]. Synthesized compounds (6a-6m) were evaluated for antimicrobial activity against various microorganisms such as Staphylococcus aureus (ATCC 25923), Enterococcus faecalis (ATCC 29212), Listeria monocytogenes (ATCC 1911), Klebsiella pneumoniae (NCTC 9633), Escherichia coli (ATCC 35218), E. coli (ATCC 25922)Candida albicans (ATCC 24433) Candida krusei (ATCC 6258) and Candida parapsilosis (ATCC 22019). […] Chloramphenicol and ketoconazole were used as standard drugs in the activity test. […] Besides, the compounds 6d, 6h, 6l and 6m indicated stronger antibacterial activity than the other compounds in the series.

[2] = tested on: Escherichia coli (ATCC 25922); experiment: broth microdilution MIC (CLSI M07-A9), resazurin; assay type: cell-based; conditions: ATCC25922, 24 h, read-out: MIC Ec-2
Protocol: as §1

[3] = tested on: Escherichia coli (ATCC 35218); experiment: broth microdilution MIC (CLSI M07-A9), resazurin; assay type: cell-based; conditions: for MIC: ATCC35218, 24 h, read-out: MIC Ec-1
Protocol: as §1

[4] = tested on: Klebsiella pneumoniae (NCTC 9633); experiment: broth microdilution MIC (CLSI M07-A9), resazurin; assay type: cell-based; conditions: 24 h
Protocol: as §1

[5] = tested on: Listeria monocytogenes (ATCC 1911); experiment: broth microdilution MIC (CLSI M07-A9), resazurin; assay type: cell-based; conditions: ATCC1911, 24 h
Protocol: as §1

[6] = tested on: Staphylococcus aureus (ATCC 25923); experiment: broth microdilution MIC (CLSI M07-A9), resazurin; assay type: cell-based; conditions: ATCC25923, 24 h
Protocol: as §1

[7] = target: T1, COX-1 (Ovis aries, UniProt P05979); experiment: fluorometric COX-1 inhibitor screening kit assay; assay type: biochemical; conditions: for SI (selectivity index): IC50 (COX-1)/IC50 (COX-2); for IC50: fluorometric kit, 25 °C; for Selectivity: isoform preferred according to SI
T1 construct: purchased Biovision K548-100
T1 sequence (P05979 25-600): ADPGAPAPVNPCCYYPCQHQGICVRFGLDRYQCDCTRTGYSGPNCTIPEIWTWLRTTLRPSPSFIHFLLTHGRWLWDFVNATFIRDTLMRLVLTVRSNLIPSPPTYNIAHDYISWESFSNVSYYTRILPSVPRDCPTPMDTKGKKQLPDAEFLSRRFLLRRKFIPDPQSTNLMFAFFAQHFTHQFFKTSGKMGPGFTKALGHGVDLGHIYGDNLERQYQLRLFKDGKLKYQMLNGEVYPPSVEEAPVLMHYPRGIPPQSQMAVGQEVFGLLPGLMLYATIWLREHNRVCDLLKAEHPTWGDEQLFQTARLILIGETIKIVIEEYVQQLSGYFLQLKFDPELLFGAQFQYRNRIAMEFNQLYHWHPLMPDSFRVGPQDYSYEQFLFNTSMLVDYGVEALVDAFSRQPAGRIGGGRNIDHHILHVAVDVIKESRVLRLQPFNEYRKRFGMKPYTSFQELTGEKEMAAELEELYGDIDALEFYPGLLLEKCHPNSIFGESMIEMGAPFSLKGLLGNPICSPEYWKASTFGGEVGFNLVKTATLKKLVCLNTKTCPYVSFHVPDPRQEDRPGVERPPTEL
Protocol: (§2) Inhibitory potency of the compounds against COX-1 and COX-2 enzymes was determined using fluorometric COX-1 and COX-2 inhibitor screening kits (Biovision, Zurich, Switzerland). Experimental protocol was followed as described in the guides of the supplier[47]^,[48]. All of the pipettings in the assay were performed by Biotek Precision robotic system (BioTek Instruments, Inc., Winooski, VT). […] Appropriate two points (T1 and T2) in the linear range of the plot were chosen, and the corresponding fluorescence values (RFU1 and RFU2) were obtained. The slope for all samples, including enzyme control (EC), by dividing the net ΔRFU (RFU2–RFU1) values by the time ΔT (T2–T1) were calculated by using following equation: % Relative inhibition=(Slope of EC-Slope of S/Slope of EC)×100
(§3) This initial in vitro assay was done with two concentrations (10^−3 and 10^−4 M) for all compounds. […] The IC50 value was calculated from the plots of enzyme activity against concentrations by applying regression analyses on GraphPad Prism Version 5 (GraphPad Software, La Jolla, CA).
(§4) Selectivity indexes (SI) were expressed as IC50 (COX-1)/IC50 (COX-2). Selectivity toward COX-2 decreases as the corresponding SI decreases while selectivity toward COX-1 isoform increases as the corresponding SI decreases.

[8] = target: T2, COX-2 (Homo sapiens, UniProt P35354); experiment: fluorometric COX-2 inhibitor screening kit assay; assay type: biochemical; conditions: 25 °C
T2 construct: purchased Biovision K547-100
T2 sequence (P35354 18-604): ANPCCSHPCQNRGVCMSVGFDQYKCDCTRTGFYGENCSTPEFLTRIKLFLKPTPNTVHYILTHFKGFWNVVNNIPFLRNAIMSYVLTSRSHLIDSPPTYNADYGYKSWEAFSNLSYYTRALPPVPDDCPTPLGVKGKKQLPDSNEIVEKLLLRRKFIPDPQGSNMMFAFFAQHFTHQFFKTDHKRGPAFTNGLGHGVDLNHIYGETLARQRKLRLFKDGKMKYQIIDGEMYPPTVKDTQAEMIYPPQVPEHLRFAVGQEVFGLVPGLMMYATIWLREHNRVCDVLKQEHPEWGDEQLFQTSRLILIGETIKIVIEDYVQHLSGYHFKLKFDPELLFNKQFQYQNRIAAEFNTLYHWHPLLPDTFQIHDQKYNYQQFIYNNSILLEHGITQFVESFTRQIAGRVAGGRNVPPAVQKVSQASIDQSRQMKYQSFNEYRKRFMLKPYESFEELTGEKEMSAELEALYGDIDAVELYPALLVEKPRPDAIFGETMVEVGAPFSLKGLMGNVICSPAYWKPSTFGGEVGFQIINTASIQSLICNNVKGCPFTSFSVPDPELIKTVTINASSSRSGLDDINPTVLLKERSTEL
Protocol: as §2, §3, §4

[9] = tested on: Candida albicans (ATCC 24433); experiment: broth dilution MIC (EUCAST EDef 7.1), resazurin; assay type: cell-based; conditions: ATCC24433, 24 h
Protocol: as §1

[10] = tested on: Candida krusei (ATCC 6258); experiment: broth dilution MIC (EUCAST EDef 7.1), resazurin; assay type: cell-based; conditions: Pichia kudriavzevii, ATCC6258, 24 h
Protocol: as §1

[11] = tested on: Candida parapsilosis (ATCC 22019); experiment: broth dilution MIC (EUCAST EDef 7.1), resazurin; assay type: cell-based; conditions: ATCC22019, 24 h
Protocol: as §1

SMILES | MIC [1] | MIC [2] | MIC Ec-1 ([3]; 24 h) | MIC [3] | MIC Kp [4] | MIC [5] | MIC [6] | SI (selectivity index) [7] | IC50 [7] | Selectivity [7] | IC50 [8] | MIC [9] | MIC [10] | MIC [11] | melting point
O=C(N[C@H](CO)[C@H](O)c1ccc([N+](=O)[O-])cc1)C(Cl)Cl [Chloramphenicol, reference compound] | 6.25 µg/mL (≈ 19.3 µM) | 6.25 µg/mL (≈ 19.3 µM) | 6.25 µg/mL (≈ 19.3 µM) | 6.25 µg/mL (≈ 19.3 µM) | 12.5 µg/mL (≈ 38.7 µM) | 12.5 µg/mL (≈ 38.7 µM) | 6.25 µg/mL (≈ 19.3 µM) | – | – | – | – | – | – | – | –
Cc1ccc(C(C)C(=O)O)cc1 (centres unmarked) [Compound 4, 2-(4-methylphenyl) propionic acid] | 50 µg/mL (≈ 304 µM) | 50 µg/mL (≈ 304 µM) | – | 25 µg/mL (≈ 152 µM) | 50 µg/mL (≈ 304 µM) | 50 µg/mL (≈ 304 µM) | 50 µg/mL (≈ 304 µM) | 0.59 | 38.2 µM | COX-1 | 64.3 µM | 100 µg/mL (≈ 609 µM) | 50 µg/mL (≈ 304 µM) | 50 µg/mL (≈ 304 µM) | –
CC(C(=O)O)c1ccc(CSC2=NCCS2)cc1 (centres unmarked) [Compound 6a, 2-(4-(((4,5-Dihydrothiazol-2-yl)thio)methyl)phenyl)propanoic acid] | 12.5 µg/mL (≈ 44.4 µM) | 12.5 µg/mL (≈ 44.4 µM) | – | 6.25 µg/mL (≈ 22.2 µM) | 6.25 µg/mL (≈ 22.2 µM) | 12.5 µg/mL (≈ 44.4 µM) | 12.5 µg/mL (≈ 44.4 µM) | 0.59 | 22.2 µM | COX-1 | 37.8 µM | 100 µg/mL (≈ 355 µM) | 100 µg/mL (≈ 355 µM) | 100 µg/mL (≈ 355 µM) | 154.2 to 156.3 °C
CC(C(=O)O)c1ccc(CSc2nccn2C)cc1 (centres unmarked) [Compound 6b, 2-(4-(((1-Methyl-1H-imidazol-2-yl)thio)methyl)phenyl)propanoic acid] | 12.5 µg/mL (≈ 45.2 µM) | 12.5 µg/mL (≈ 45.2 µM) | – | 6.25 µg/mL (≈ 22.6 µM) | 6.25 µg/mL (≈ 22.6 µM) | 12.5 µg/mL (≈ 45.2 µM) | 12.5 µg/mL (≈ 45.2 µM) | 0.60 | 28.6 µM | COX-1 | 47.4 µM | 100 µg/mL (≈ 362 µM) | 100 µg/mL (≈ 362 µM) | 50 µg/mL (≈ 181 µM) | –
CC(C(=O)O)c1ccc(CSc2nc[nH]n2)cc1 (centres unmarked) [Compound 6c, 2-(4-(((1H-1,2,4-Triazol-3-yl)thio)methyl)phenyl)propanoic acid] | 12.5 µg/mL (≈ 47.5 µM) | 12.5 µg/mL (≈ 47.5 µM) | – | 6.25 µg/mL (≈ 23.7 µM) | 12.5 µg/mL (≈ 47.5 µM) | 12.5 µg/mL (≈ 47.5 µM) | 12.5 µg/mL (≈ 47.5 µM) | 0.53 | 19.5 µM | COX-1 | 36.7 µM | 100 µg/mL (≈ 380 µM) | 50 µg/mL (≈ 190 µM) | 50 µg/mL (≈ 190 µM) | –
CC(C(=O)O)c1ccc(CSc2nncn2C)cc1 (centres unmarked) [Compound 6d, 2-(4-(((4-Methyl-4 H-1,2,4-triazol-3-yl)thio)methyl)phenyl)propanoic acid] | 6.25 µg/mL (≈ 22.5 µM) | 12.5 µg/mL (≈ 45.1 µM) | – | 6.25 µg/mL (≈ 22.5 µM) | 6.25 µg/mL (≈ 22.5 µM) | 12.5 µg/mL (≈ 45.1 µM) | 12.5 µg/mL (≈ 45.1 µM) | 0.62 | 24.6 µM | COX-1 | 39.9 µM | 50 µg/mL (≈ 180 µM) | 50 µg/mL (≈ 180 µM) | 50 µg/mL (≈ 180 µM) | –
CC(C(=O)O)c1ccc(CSc2nnnn2C)cc1 (centres unmarked) [Compound 6e, 2-(4-(((1-Methyl-1 H-tetrazol-5-yl)thio)methyl)phenyl)propanoic acid] | 12.5 µg/mL (≈ 44.9 µM) | 12.5 µg/mL (≈ 44.9 µM) | – | 6.25 µg/mL (≈ 22.5 µM) | 6.25 µg/mL (≈ 22.5 µM) | 12.5 µg/mL (≈ 44.9 µM) | 12.5 µg/mL (≈ 44.9 µM) | 0.60 | 21.8 µM | COX-1 | 36.3 µM | 50 µg/mL (≈ 180 µM) | 50 µg/mL (≈ 180 µM) | 50 µg/mL (≈ 180 µM) | –
CC(=O)N1CCN(c2ccc(OCC3COC(Cn4ccnc4)(c4ccc(Cl)cc4Cl)O3)cc2)CC1 (centres unmarked) [Ketoconazole, reference compound] | – | – | – | – | – | – | – | – | – | – | – | 0.78 µg/mL (≈ 1.47 µM) | 0.78 µg/mL (≈ 1.47 µM) | 0.78 µg/mL (≈ 1.47 µM) | –
